Experimental data reported in patent US8344003B2, “2-pyridinecarboxamide derivatives” (MSD K. K., priority 2003, dated 2013).
pEC50: −log10 of the molar value.

Molecular target: T1, recombinant human liver GK (Homo sapiens, UniProt P35557)
T1 construct: made in house; host or cells: E. coli
T1 sequence (P35557 1-466 isoform P35557-2): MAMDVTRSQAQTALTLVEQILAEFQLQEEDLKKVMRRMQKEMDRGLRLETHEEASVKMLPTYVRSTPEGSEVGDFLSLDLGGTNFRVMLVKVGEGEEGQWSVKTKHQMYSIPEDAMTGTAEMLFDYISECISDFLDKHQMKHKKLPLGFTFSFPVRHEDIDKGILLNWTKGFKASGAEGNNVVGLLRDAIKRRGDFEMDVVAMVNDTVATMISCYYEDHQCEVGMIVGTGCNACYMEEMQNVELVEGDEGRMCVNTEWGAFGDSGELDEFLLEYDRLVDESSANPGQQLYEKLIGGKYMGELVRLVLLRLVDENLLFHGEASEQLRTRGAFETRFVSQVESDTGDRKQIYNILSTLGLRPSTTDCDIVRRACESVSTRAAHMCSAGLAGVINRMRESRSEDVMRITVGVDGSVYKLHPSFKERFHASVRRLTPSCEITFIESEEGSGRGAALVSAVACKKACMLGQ
Experiment: glucokinase (GK) activation assay, Thio-NADH generation via reporter enzyme G6PDH, absorbance at 405 nm
Type: biochemical
Conditions: final glucose concentration 2.5 mM, 30° C.; for pEC50: GK activation; for Emax: OD value of DMSO control regarded as 100%
Procedure: The glucokinase activity can be determined without directly measuring glucose-6-phosphate by measuring the amount of Thio-NADH generated during the production of phosphogluconolactone from glucose-6-phosphate by a reporter enzyme glucose-6-phosphate dehydrogenase. Thus, the degree of the glucokinase activity can be determined.
The recombinant human liver GK used in this assay expressed as a FLAG fusion protein in E. coli, was purified on […] M2 AFFINITY GEL (Sigma).
Assay was carried out at 30° C. in a 96-well plate. In the plate was distributed 69 μl each of assay buffer (25 mM Hepes Buffer: pH=7.2, 2 mM MgCl2, 1 mM ATP, 0.5 mM TNAD, 1 mM dithiothreitol), to which was added 1 μl of a DMSO solution of the compound or DMSO as control. Then, 20 μl of pre-ice-cooled enzyme mixture (FLAG-GK, 20 U/ml G6PDH) was distributed thereto, to which was added 10 μl of 25 mM glucose as substrate to initiate the reaction (final glucose concentration=2.5 mM).
FLAG-GK was added so that the increase of absorbance after 5 minutes fell between 0.05 to 0.1 in the presence of 1% DMSO.
The OD values of the respective compounds to be evaluated were measured in the respective concentrations, wherein the OD value of DMSO as control was regarded as 100%. From the OD values at the respective concentrations, Emax (%) and EC50 (μM) were calculated and used as indicators of the GK activation capability of the compounds. According to the above assay, the GK activation capability of the compounds in the present invention was determined.

Row | Structure (SMILES) | pEC50 | Emax
1 | COc1ccc(Sc2ccc(Sc3nnc[nH]3)nc2C(=O)Nc2nccs2)cc1 [Production Example 1] | 7.30 | 997%
2 | Cc1ccc(Sc2ccc(Sc3nnc[nH]3)nc2C(=O)Nc2nccs2)cn1 [Production Example 30, 3-(6-methyl-pyridine-3-yl-sulfanyl)-6-(4H-[1,2,4]triazole-3-yl-sulfanyl)-N-(thiazole-2-yl)-2-pyridine carboxamide] | 6.92 | 818%
